Activity calls are given as the source filed them. The calls are words filed in the database; no cut-off is given here.
What was measured:
SMMC-7721 [1] = test: Antiproliferative activity against human SMMC7721 cells assessed as reduction in cell growth incubated for 72 hrs by CCK-8 assay; format: functional, cell-based; conditions: SMMC-7721, 72 h
[2] = target: T1, Protein deacetylase HDAC6 (Homo sapiens, UniProt Q9UBN7); test: Inhibition of human recombinant His-tagged HDAC6 expressed in baculovirus infected insect cells using FLUOR DE LYS SIRT1 as substrate preincubated for 10 mins followed by substrate addition and measured after 30 mins by fluorescence method
T1 sequence (Q9UBN7 whole entry): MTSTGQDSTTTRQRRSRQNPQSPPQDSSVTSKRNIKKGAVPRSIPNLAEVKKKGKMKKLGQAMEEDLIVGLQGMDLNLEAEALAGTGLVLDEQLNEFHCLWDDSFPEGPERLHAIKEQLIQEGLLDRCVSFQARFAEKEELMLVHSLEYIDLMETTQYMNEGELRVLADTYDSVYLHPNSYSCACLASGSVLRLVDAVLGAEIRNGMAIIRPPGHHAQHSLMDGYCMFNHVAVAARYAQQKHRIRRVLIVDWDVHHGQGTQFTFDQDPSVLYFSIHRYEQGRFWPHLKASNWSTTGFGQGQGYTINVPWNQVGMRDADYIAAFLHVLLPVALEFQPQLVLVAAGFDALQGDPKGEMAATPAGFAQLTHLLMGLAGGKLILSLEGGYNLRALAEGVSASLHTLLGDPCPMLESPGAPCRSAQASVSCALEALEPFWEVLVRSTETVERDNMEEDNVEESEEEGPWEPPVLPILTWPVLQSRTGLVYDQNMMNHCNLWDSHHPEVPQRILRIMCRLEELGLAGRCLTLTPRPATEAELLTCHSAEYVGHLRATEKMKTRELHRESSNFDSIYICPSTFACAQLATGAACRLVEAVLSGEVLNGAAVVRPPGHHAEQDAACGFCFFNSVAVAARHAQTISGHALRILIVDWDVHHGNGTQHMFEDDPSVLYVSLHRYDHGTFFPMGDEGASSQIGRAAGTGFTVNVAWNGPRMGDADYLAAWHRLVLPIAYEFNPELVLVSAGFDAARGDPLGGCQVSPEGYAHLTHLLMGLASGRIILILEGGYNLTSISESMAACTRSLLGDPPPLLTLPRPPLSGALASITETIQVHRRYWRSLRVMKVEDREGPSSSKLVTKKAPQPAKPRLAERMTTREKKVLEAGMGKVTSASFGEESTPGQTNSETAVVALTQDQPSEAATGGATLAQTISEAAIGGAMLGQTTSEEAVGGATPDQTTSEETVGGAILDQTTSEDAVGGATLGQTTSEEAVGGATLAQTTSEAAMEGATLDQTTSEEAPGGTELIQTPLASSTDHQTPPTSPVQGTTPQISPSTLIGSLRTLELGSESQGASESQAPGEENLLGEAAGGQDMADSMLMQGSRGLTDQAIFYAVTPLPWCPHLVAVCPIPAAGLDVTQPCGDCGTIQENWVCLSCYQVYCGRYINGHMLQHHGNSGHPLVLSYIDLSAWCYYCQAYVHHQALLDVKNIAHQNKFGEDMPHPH

A-375 [3] = test: Antiproliferative activity against human A375 cells assessed as reduction in cell growth at 8 uM incubated for 72 hrs by CCK-8 assay relative to control; format: functional; conditions: A-375, 72 h
A-375 [4] = test: Antiproliferative activity against human A375 cells assessed as reduction in cell growth at 2 uM incubated for 72 hrs by CCK-8 assay relative to control; format: functional; conditions: A-375, 72 h
HeLa = test: Antiproliferative activity against human HeLa cells assessed as reduction in cell growth at 2 uM incubated for 72 hrs by CCK-8 assay relative to control; format: functional
A549 [5] = test: Antiproliferative activity against human A549 cells assessed as reduction in cell growth at 2 uM incubated for 72 hrs by CCK-8 assay relative to control; format: functional; conditions: A549, 72 h
HCT-116 = test: Antiproliferative activity against human HCT116 cells assessed as reduction in cell growth at 2 uM incubated for 72 hrs by CCK-8 assay relative to control; format: functional; conditions: HCT-116, 72 h
SMMC-7721 [6] = test: Antiproliferative activity against human SMMC7721 cells assessed as reduction in cell growth at 8 uM incubated for 72 hrs by CCK-8 assay relative to control; format: functional; conditions: SMMC-7721, 72 h
A549 [7] = test: Antiproliferative activity against human A549 cells assessed as reduction in cell growth incubated for 72 hrs by CCK-8 assay; format: functional, cell-based; conditions: A549, 72 h
Histone deacetylase 1 = Histone deacetylase 1 (Homo sapiens, UniProt Q13547); test: Inhibition of human recombinant His-tagged HDAC1 (482 residues) expressed in baculovirus infected insect cells using FLUOR DE LYS SIRT1 as substrate incubated for 10 mins followed by substrate addition and measured after 30 mins by fluorescence method
Histone deacetylase 2 [8] = target: T2, Histone deacetylase 2 (Homo sapiens, UniProt Q92769); test: Inhibition of human recombinant His-tagged HDAC2 ([…]) expressed in baculovirus infected insect cells using FLUOR DE LYS Green as substrate preincubated for 10 mins followed by substrate addition and measured after 30 mins by fluorescence method
SMMC-7721 [9] = test: Inhibition of colony formation in human SMMC7721 cells incubated for 10 days by crystal violet staining based assay; format: functional, cell-based
SMMC-7721 [10] = test: Cell cycle arrest in human SMMC7721 cells assessed as accumulation at G0/G1 phase at 1 uM incubated for 48 hrs by propidium iodide staining based flow cytometry (Rvb=77%); format: functional
SMMC-7721 [11] = test: Induction of apoptosis in human SMMC7721 cells assessed as late apoptotic cells at 0.25 uM incubated for 48 hrs by Annexin-V-FITC/propidium iodide staining based flow cytometry (Rvb=1.73%); format: functional
SMMC-7721 [12] = test: Induction of apoptosis in human SMMC7721 cells assessed as viable cells at 1 uM incubated for 48 hrs by Annexin-V-FITC/propidium iodide staining based flow cytometry (Rvb=93.5%); format: functional; conditions: SMMC-7721, 48 h, read-out: Activity
SMMC-7721 [13] = test: Induction of apoptosis in human SMMC7721 cells assessed as necrotic cells at 1 uM incubated for 48 hrs by Annexin-V-FITC/propidium iodide staining based flow cytometry (Rvb=1.88%); format: functional
SMMC-7721 [14] = test: Induction of apoptosis in human SMMC7721 cells assessed as early apoptotic cells at 4 uM incubated for 48 hrs by Annexin-V-FITC/propidium iodide staining based flow cytometry (Rvb=2.88%); format: functional
SMMC-7721 [15] = test: Induction of apoptosis in human SMMC7721 cells assessed as necrotic cells at 4 uM incubated for 48 hrs by Annexin-V-FITC/propidium iodide staining based flow cytometry (Rvb=1.88%); format: functional
Histone deacetylase 2 [16] = target: T2, Histone deacetylase 2; test: Inhibition of HDAC2 in human SMMC7721 cells assessed as increase in H3K9 acetylation at 1uM incubated for 48 hrs by DAPI staining based confocal fluorescence microscopy; format: cell-based
NIH3T3 = test: Cytotoxicity against mouse NIH/3T3 cells assessed as reduction in cell viability after 48 hrs by CCK8 assay; format: cell-based; conditions: NIH3T3, 48 h
SMMC-7721 [17] = test: Induction of apoptosis in human SMMC7721 cells incubated for 48 hrs by Annexin-V-FITC/propidium iodide staining based flow cytometry; format: functional, cell-based

T2 sequence (Q92769 whole entry): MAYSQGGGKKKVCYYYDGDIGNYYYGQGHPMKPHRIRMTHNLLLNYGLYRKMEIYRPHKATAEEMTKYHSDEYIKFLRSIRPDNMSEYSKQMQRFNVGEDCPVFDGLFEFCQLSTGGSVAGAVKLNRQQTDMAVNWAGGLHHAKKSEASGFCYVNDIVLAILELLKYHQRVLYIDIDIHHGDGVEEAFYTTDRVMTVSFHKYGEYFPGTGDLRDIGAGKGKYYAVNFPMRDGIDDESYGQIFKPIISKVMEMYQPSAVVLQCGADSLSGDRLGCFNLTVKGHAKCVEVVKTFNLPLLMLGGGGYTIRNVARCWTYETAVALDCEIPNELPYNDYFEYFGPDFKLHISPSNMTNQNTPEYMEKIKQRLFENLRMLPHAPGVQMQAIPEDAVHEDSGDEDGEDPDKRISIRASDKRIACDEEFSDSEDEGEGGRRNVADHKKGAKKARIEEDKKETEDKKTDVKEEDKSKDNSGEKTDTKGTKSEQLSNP
Sequence of Histone deacetylase 1 (Q13547 whole entry): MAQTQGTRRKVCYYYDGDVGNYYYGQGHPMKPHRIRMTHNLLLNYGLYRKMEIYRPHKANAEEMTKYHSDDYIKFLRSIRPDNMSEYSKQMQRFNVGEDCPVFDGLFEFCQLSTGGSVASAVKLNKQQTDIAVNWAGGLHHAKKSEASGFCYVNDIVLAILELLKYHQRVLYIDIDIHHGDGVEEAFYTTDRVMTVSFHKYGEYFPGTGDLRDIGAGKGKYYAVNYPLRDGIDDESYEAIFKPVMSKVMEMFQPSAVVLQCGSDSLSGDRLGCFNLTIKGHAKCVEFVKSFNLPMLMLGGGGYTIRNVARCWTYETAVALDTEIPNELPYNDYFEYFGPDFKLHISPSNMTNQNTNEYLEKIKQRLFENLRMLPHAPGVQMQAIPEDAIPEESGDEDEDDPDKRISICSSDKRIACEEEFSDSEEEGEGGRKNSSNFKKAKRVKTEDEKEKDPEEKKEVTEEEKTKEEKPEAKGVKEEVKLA

Row | IC50 (SMMC-7721 [1]) | IC50 [2] | IC50 (A549 [7]) | IC50 (Histone deacetylase 1) | IC50 (Histone deacetylase 2 [8]) | inhibition (Histone deacetylase 2 [16]) | Structure (SMILES) | inhibition at 8 µM (A-375 [3]) | inhibition at 2 µM (A-375 [4]) | inhibition at 2 µM (HeLa) | inhibition at 2 µM (A549 [5]) | inhibition at 2 µM (HCT-116) | inhibition at 8 µM (SMMC-7721 [6]) | inhibition (SMMC-7721 [9]) | Activity (SMMC-7721 [10]) | Activity (SMMC-7721 [11]) | viability at 1 µM (SMMC-7721 [12]) | Activity (SMMC-7721 [13]) | Activity (SMMC-7721 [14]) | Activity (SMMC-7721 [15]) | IC50 (NIH3T3) | further results
1 | 2160 nM | > 40000 nM | 6270 nM | 380 nM | 610 nM | Active | COc1ccc2c(=O)n(-c3ccccc3Cl)c(SCc3ccc(C(=O)Nc4ccccc4N)cc3)nc2c1 | 78.7% | 41.8% | 54.4% | 52.5% | 43.7% | 84.1% | Dose-dependent effect | 34.49% | 13.1% | 65.6% | 7.63% | 5.54% | 8.28% | 3390 nM | Activity (SMMC-7721 [17]): Dose-dependent effect
2 | 5580 nM | > 40000 nM | 4600 nM | 290 nM | 530 nM | Active | Cn1c(SCc2ccc(C(=O)Nc3ccccc3N)cc2)nc2cc(Br)ccc2c1=O | 72.9% | 34.5% | 32.3% | 37.5% | 72.4% | 70.6% | Dose-dependent effect | 56.35% | 9.88% | 49.5% | 13.6% | 6.61% | 15.1% | 4020 nM | Activity (SMMC-7721 [17]): Dose-dependent effect
3 | 60 nM | > 40000 nM | 1760 nM | 100 nM | 180 nM | Active | CCn1c(SCc2ccc(/C=C/C(=O)Nc3ccccc3N)cc2)nc2cc(OC)ccc2c1=O | 89.5% | 55% | 24% | 18.6% | 67.3% | 79.7% | Dose-dependent effect | 50.71% | 9.65% | 45.8% | 8.91% | 10.5% | 10% | 4800 nM | Activity (SMMC-7721 [17]): Dose-dependent effect
4 | 30 nM | > 40000 nM | 3060 nM | 10 nM | 160 nM | Active | COc1ccc2c(=O)n(C)c(SCc3ccc(C(=O)Nc4ccccc4N)cc3)nc2c1 | 89.4% | 52.2% | 57.5% | 38% | 73.1% | 79.3% | Dose-dependent effect | 58.1% | 18.9% | 32.3% | 10.8% | 13% | 10.6% | 2530 nM | Activity (SMMC-7721 [17]): Dose-dependent effect
